From PubChem BioAssay (NCI)
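Method: 48-hour compound exposure of cells in 96-well plates, five concentrations, linear interpolation of endpoints. The concentration for 50% growth inhibition is given as GI50. TGI marks complete inhibition of growth.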

What was measured:
Assay in all cases: NCI tumour cell line growth inhibition, 48 h
[1] = system: A498 renal
[2] = system: SK-MEL-2 melanoma
[3] = system: K-562 leukemia
[4] = system: HL-60(TB) leukemia
[5] = system: MDA-MB-435
[6] = system: MALME-3M melanoma
[7] = system: A549 NSCLC
[8] = system: OVCAR-8 ovarian
[9] = system: SNB-19 CNS
[10] = system: U251 CNS
[11] = system: CCRF-CEM leukemia
[12] = system: SF-539 CNS
[13] = system: HS 578T breast
[14] = system: HOP-62 NSCLC
[15] = system: KM12 colon
[16] = system: LOX IMVI melanoma
[17] = system: SK-OV-3 ovarian
[18] = system: UACC-62 melanoma
[19] = system: DU-145 prostate
[20] = system: NCI-H226 lung
[21] = system: SF-268 CNS
[22] = system: UO-31 renal
[23] = system: UACC-257 melanoma
[24] = system: T-47D breast
[25] = system: SNB-75 CNS
[26] = system: M14 melanoma
[27] = system: RXF 393 renal
[28] = system: TK-10 renal
[29] = system: SR leukemia
[30] = system: BT-549 breast
[31] = system: CAKI-1 renal
[32] = system: COLO 205 colon
[33] = system: HCC-2998 colon
[34] = system: SK-MEL-5 melanoma
[35] = system: RPMI-8226 leukemia
[36] = system: OVCAR-3 ovarian
[37] = system: SF-295 CNS
[38] = system: SK-MEL-28 melanoma
[39] = system: 786-0 renal

## O=C(CI)NC1Oc2ccccc2-c2oc(=O)c(-c3ccccc3)cc21 (stereo not drawn)
[1]
  GI50: 1.85 µM
  TGI: 3.62 µM
[2]
  GI50: 2.17 µM
  TGI: 5.43 µM
[3]
  GI50: 1.32 µM
  TGI: 11.9 µM
[4]
  GI50: 2.09 µM
  TGI: 4.94 µM
[5]
  GI50: 1.68 µM
  TGI: 3.16 µM
[6]
  GI50: 1.73 µM
  TGI: 3.27 µM
[7]
  GI50: 2.36 µM
  TGI: 6.16 µM
[8]
  GI50: 1.79 µM
  TGI: 4.47 µM
[9]
  GI50: 2.64 µM
  TGI: 7.54 µM
[10]
  GI50: 1.73 µM
  TGI: 3.22 µM
[11]
  GI50: 0.305 µM
  TGI: > 100 µM
[12]
  GI50: 1.73 µM
  TGI: 3.13 µM
[13]
  GI50: 2.4 µM
  TGI: 7.28 µM
[14]
  GI50: 1.87 µM
  TGI: 3.81 µM
[15]
  GI50: 1.77 µM
  TGI: 3.46 µM
[16]
  GI50: 0.307 µM
  TGI: 1.07 µM
[17]
  GI50: 1.83 µM
  TGI: 3.48 µM
[18]
  GI50: 1.73 µM
  TGI: 3.25 µM
[19]
  GI50: 1.57 µM
  TGI: 2.98 µM
[20]
  GI50: 3.32 µM
  TGI: 29 µM
[21]
  GI50: 1.68 µM
  TGI: 3.36 µM
[22]
  GI50: 1.86 µM
  TGI: 3.28 µM
[23]
  GI50: 2.07 µM
  TGI: 4.84 µM
[24]
  GI50: 1.79 µM
  TGI: 4.44 µM
[25]
  GI50: 1.54 µM
  TGI: 2.94 µM
[26]
  GI50: 1.67 µM
  TGI: 3.2 µM
[27]
  GI50: 1.5 µM
  TGI: 3 µM
[28]
  GI50: 1.71 µM
  TGI: 3.13 µM
[29]
  GI50: 0.357 µM
  TGI: > 100 µM
[30]
  GI50: 1.7 µM
  TGI: 3.24 µM
[31]
  GI50: 1.67 µM
  TGI: 3.05 µM
[32]
  GI50: 1.81 µM
  TGI: 3.92 µM
[33]
  GI50: 8.46 µM
  TGI: 26.6 µM
[34]
  GI50: 3.26 µM
  TGI: 11.4 µM
[35]
  GI50: 2.08 µM
  TGI: 4.79 µM
[36]
  GI50: 1.3 µM
  TGI: 2.71 µM
[37]
  GI50: 1.77 µM
  TGI: 3.37 µM
[38]
  GI50: 1.81 µM
  TGI: 3.31 µM
[39]
  GI50: 0.441 µM
  TGI: 1.58 µM
